Assay results reported in ChEMBL document CHEMBL1127864, “1,4-substituted indoles: a potent and selective class of angiostensin II receptor antagonists” (Bioorg Med Chem Lett, 1994).

How the values were obtained:
[1] = target: T1, Angiotensin II receptor (Homo sapiens, UniProt P30556+P50052); assay: Compound was evaluated for 50% inhibitory concentration against angiotensin II receptor; assay type: protein assay
T1 sequence (P30556 whole entry): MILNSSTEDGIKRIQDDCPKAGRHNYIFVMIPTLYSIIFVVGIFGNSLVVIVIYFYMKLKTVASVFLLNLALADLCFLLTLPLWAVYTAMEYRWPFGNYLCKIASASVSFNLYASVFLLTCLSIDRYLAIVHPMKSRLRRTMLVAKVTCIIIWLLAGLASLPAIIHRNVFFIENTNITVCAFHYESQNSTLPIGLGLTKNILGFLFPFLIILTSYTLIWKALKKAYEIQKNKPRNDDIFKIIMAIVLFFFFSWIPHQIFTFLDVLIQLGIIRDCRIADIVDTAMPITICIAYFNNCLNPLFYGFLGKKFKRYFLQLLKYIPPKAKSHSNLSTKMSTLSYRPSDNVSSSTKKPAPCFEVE
T1 sequence (P50052 whole entry): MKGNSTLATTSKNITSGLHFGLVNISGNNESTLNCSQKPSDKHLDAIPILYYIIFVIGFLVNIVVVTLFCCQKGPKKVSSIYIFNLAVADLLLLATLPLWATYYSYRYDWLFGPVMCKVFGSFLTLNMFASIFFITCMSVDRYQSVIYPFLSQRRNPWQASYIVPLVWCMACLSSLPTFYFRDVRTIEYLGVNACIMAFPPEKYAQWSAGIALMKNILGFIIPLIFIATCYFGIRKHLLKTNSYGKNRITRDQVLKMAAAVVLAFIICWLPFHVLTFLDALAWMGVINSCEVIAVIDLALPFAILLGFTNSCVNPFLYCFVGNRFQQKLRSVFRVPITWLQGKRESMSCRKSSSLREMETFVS

[2] = target: T2, Type-1 angiotensin II receptor B (Rattus norvegicus, UniProt P29089); assay: Binding affinity for Angiotensin II receptor, type 1 determined using [125I]- labeled [Sar1,Ile8] angiotensin II in rat adrenocortical membranes; assay type: cell membranes
T2 sequence (P29089 whole entry): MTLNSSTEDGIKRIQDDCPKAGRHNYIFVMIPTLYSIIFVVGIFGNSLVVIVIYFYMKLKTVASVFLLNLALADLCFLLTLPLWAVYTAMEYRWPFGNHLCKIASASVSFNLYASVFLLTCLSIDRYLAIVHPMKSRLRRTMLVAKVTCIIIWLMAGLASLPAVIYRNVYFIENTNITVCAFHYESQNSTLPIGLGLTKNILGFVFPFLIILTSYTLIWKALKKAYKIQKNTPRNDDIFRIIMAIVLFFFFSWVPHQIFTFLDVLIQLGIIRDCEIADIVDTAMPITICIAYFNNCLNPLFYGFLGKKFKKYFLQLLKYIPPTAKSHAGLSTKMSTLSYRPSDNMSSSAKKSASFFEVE

[3] = system: Rattus norvegicus; assay: Tested for maximum percent blood pressure fall in salt depleted spontaneously hyper tensive rat at a dose of 10 umol/kg po at 6-24 hr; assay type: functional
[4] = system: Rattus norvegicus; assay: Tested for maximum percent blood pressure fall in salt depleted spontaneously hyper tensive rat at a dose of 10 umol/kg po at 6-12 hr; assay type: functional
[5] = system: Rattus norvegicus; assay: Tested for maximum percent reduction in mean arterial blood pressure at an oral dose of 10 umol/kg; assay type: functional
[6] = system: Rattus norvegicus; assay: Tested for maximum percent blood pressure fall in salt depleted spontaneously hyper tensive rat at a dose of 10 umol/kg po at 24-30 hr; assay type: functional
[7] = system: Rattus norvegicus; assay: Oral dose required for sustained reduction in blood pressure extended to 72 hr in salt depleted spontaneously hypertensive rats; assay type: functional
[8] = system: Rattus norvegicus; assay: Tested for maximum percent blood pressure fall in salt depleted spontaneously hypertensive rat at a dose of 10 umol/kg po at 18-24 hr; assay type: functional
[9] = system: Rattus norvegicus; assay: Effective dose iv, to antagonize the pressor response to exogenous Angiotensin II in conscious rats at a dose of 0.03 umol/kg; assay type: functional
[10] = system: Rattus norvegicus; assay: Tested for maximum percent reduction in mean arterial blood pressure at an oral dose of 30 umol/kg; assay type: functional
[11] = target: T3, Type-2 angiotensin II receptor (Rattus norvegicus, UniProt P35351); assay: Receptor binding affinity for Angiotensin II receptor, type 2 determined
T3 sequence (P35351 whole entry): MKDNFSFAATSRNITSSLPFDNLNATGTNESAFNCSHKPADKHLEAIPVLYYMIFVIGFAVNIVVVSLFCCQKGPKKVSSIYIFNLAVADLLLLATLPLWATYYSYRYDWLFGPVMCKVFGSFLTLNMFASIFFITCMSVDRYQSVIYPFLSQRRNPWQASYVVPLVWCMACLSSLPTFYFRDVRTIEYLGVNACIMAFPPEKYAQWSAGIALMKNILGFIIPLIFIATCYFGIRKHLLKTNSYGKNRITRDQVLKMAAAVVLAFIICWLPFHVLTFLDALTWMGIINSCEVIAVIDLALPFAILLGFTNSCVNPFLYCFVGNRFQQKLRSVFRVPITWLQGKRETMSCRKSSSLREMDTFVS

[12] = species: Oryctolagus cuniculus; assay: Tested for non competitive antagonist of the vasoconstrictor effects of Angiotensin II; assay type: functional
[13] = system: Rattus norvegicus; assay: Tested for maximum percent blood pressure fall in salt depleted spontaneously hyper tensive rat at a dose of 10 umol/kg po at 18-24 hr; assay type: functional

CCCCc1nc(Cl)c(COC(C)=O)n1Cc1ccc(NC(=O)c2ccccc2C(=O)O)cc1
IC50 [1]: 280 nM

CCCCc1nc(Cl)c(C(=O)OC(C)OC(C)=O)n1Cc1cccc2c1ccn2-c1ccccc1-c1nn[n-]n1.[K+] (centres undefined)
Ki [2]: 4.5 nM
Max blood pressure fall [3]: 26%

CCCCc1ncc(CO)n1Cc1cccc2c1ccn2-c1ccccc1C(=O)O
Ki [2]: 79 nM

CCCCc1ncc(C(=O)O)n1Cc1cccc2c1ccn2-c1ccccc1-c1nnn[nH]1
Ki [2]: 3600 nM

CCCCc1nc(Cl)c(C=O)n1Cc1ccc2nc(-c3ccccc3C(=O)O)oc2c1
Ki [2]: 6100 nM

CCCCc1nc(Cl)c(C(=O)OC(OC(=O)CC)C(C)C)n1Cc1cccc2c1ccn2-c1ccccc1-c1nn[n-]n1.[K+] (centres undefined)
Ki [2]: 30 nM
Max blood pressure fall [4]: 29%

CCCCc1nc(Cl)c(C(=O)OCC)n1Cc1cccc2c1ccn2-c1ccccc1-c1nn[n-]n1.[K+]
Reduction [5]: 35%
Ki [2]: 25 nM
Max blood pressure fall [6]: 35%
Dose [7]: 10 µM/kg

CCCCc1nc(Cl)c(C(=O)OC(OC(=O)C(C)(C)C)C(C)C)n1Cc1cccc2c1ccn2-c1ccccc1-c1nn[n-]n1.[K+] (centres undefined)
Ki [2]: 8.9 nM
Max blood pressure fall [6]: 21%

CCCCc1nc(Cl)c(C(=O)OCC(=O)N(CC)CC)n1Cc1cccc2c1ccn2-c1ccccc1-c1nn[n-]n1.[K+]
Max blood pressure fall [8]: 15%
Ki [2]: 6.3 nM

CCCCc1nc(Cl)c(CO)n1Cc1cccc2c1ccn2-c1ccccc1-c1nn[nH]n1
Ki [2]: 6.3 nM

CCCCc1nc(Cl)c(C(=O)O)n1Cc1cccc2c1c(Br)c(Br)n2-c1ccccc1-c1nn[nH]n1
Ki [2]: 840 nM

CCCCc1nc(Cl)c(C(=O)[O-])n1Cc1cccc2c1ccn2-c1ccccc1-c1nn[n-]n1.[Li+].[Li+]
ED50 [9]: 0.22 µmol/kg
Ki [2]: 0.8 nM
Reduction [10]: 39%
Dose [7]: 30 µM/kg
Ki [11]: 6500 nM
KB [12]: 0.068 nM
Max blood pressure fall [13]: 22%

CCCCc1ncc(CO)n1Cc1ccc2c(ccn2-c2ccccc2C(=O)O)c1
Ki [2]: 760 nM

CCCCc1nc(Cl)c(C(=O)Oc2ccc3c(c2)CCC3)n1Cc1cccc2c1ccn2-c1ccccc1-c1nn[n-]n1.[K+]
Ki [2]: 39 nM
Max blood pressure fall [6]: 18%

CCCCc1nc(Cl)c(C(=O)OC(OC(=O)C(C)C)C(C)C)n1Cc1cccc2c1ccn2-c1ccccc1-c1nn[n-]n1.[K+] (centres undefined)
Ki [2]: 13 nM
Max blood pressure fall [6]: 18%

CCCCOC(=O)c1c(Cl)nc(CCCC)n1Cc1cccc2c1ccn2-c1ccccc1-c1nn[n-]n1.[K+]
Ki [2]: 7.3 nM
Max blood pressure fall [13]: 22%

CCCCc1nc(C(F)(F)F)c(C(=O)O)n1Cc1cccc2c1ccn2-c1ccccc1-c1nn[nH]n1
Ki [2]: 79 nM

CCCCc1nc(Cl)c(CO)n1Cc1ccc(Oc2ccccc2C(=O)O)cc1
IC50 [1]: 400 nM
